Values quoted from earlier work as cited in article PMC5742115, “Pharmacophore Modeling and in Silico/in Vitro Screening for Human Cytochrome P450 11B1 and Cytochrome P450 11B2 Inhibitors” (Frontiers in Chemistry, 2017).
Like-named read-outs stand apart in the source and are kept apart here.

Tests used:
[1] = test system: CYP11B2; conditions: cited from earlier work
[2] = test system: CYP11B1; conditions: cited from earlier work
[3] = reported activity, supplementary Table 1, ref Yin et al., 2013, read-out: CYP11B2 IC50
[4] = reported activity, supplementary Table 1, ref Yin et al., 2013, read-out: CYP11B1 IC50
[5] = reported activity, supplementary Table 1, ref Blass, 2013a, read-out: CYP11B2 IC50
[6] = reported activity, supplementary Table 1, ref Blass, 2013a, read-out: CYP11B1 IC50
[7] = reported activity, supplementary Table 1, ref Gobbi et al., 2013, read-out: CYP11B2 IC50
[8] = reported activity, supplementary Table 1, ref Gobbi et al., 2013, read-out: CYP11B1 IC50
[9] = reported activity, supplementary Table 1, ref Emmerich et al., 2013, read-out: CYP11B2 IC50
[10] = reported activity, supplementary Table 1, ref Emmerich et al., 2013, read-out: CYP11B1 IC50
[11] = reported activity, supplementary Table 1, ref Pinto-Bazurco Mendieta et al., 2013, read-out: CYP11B2 IC50
[12] = reported activity, supplementary Table 1, ref Pinto-Bazurco Mendieta et al., 2013, read-out: CYP11B1 IC50
[13] = reported activity, supplementary Table 1, ref Meredith et al., 2013, read-out: CYP11B2 IC50
[14] = reported activity, supplementary Table 1, ref Meredith et al., 2013, read-out: CYP11B1 IC50
[15] = Figure 2, ref Yin et al., 2012, Emmerich et al., 2013, Gobbi et al., 2016, read-out: hCYP11B2 IC50
[16] = Figure 2, ref Yin et al., 2012, Emmerich et al., 2013, Gobbi et al., 2016, read-out: hCYP11B1 IC50

## CC(c1cccnc1)c1cc2c3c(c1)CCN3C(=O)CC2 (stereo not shown) [CHEMBL2312967]
[1]; [3]
  IC50: 37 nM
[2]; [4]
  IC50: 4 nM

## O=C1CCc2cc(C(c3cccnc3)c3cccc(Cl)c3)cc3c2N1CC3 (stereo not shown) [CHEMBL2312971]
[1]; [3]
  IC50: > 5000 nM
[2]; [4]
  IC50: 36 nM

## O=C1CCc2cc(C(c3ccc(F)cc3)c3cccnc3)cc3c2N1CC3 (stereo not shown) [CHEMBL2312972]
[1]; [3]
  IC50: 587 nM
[2]; [4]
  IC50: 78 nM

## Cc1nnc2n1-c1c(Cl)cc(-c3cnccc3C3CC3)cc1CC2 [CHEMBL2331703]
[1]; [5]
  IC50: 48 nM
[2]; [6]
  IC50: 6930 nM

## COC(C)(C)c1cncc(-c2ccc3c(c2)CCc2nnc(C)n2-3)c1 [CHEMBL2331704]
[1]; [5]
  IC50: 5 nM
[2]; [6]
  IC50: 108 nM

## Cc1nnc2n1-c1ccc(-c3cncc4ccccc34)cc1CC2 [CHEMBL2331706]
[1]; [5]
  IC50: 5 nM
[2]; [6]
  IC50: 407 nM

## Fc1ccc(Cn2ccnc2)cn1 [CHEMBL2331707]
[1]; reported activity, supplementary Table 1, ref Blass, 2013b, read-out: CYP11B2 IC50
  IC50: 1740 nM
[2]; reported activity, supplementary Table 1, ref Blass, 2013b, read-out: CYP11B1 IC50
  IC50: 72 nM

## O=c1c2ccccc2oc2c(Cl)ccc(Cn3ccnc3)c12 [CHEMBL2333326]
[1]; [7]
  IC50: 3 nM
[2]; [8]
  IC50: 0.5 nM

## O=c1c2ccccc2oc2c(I)ccc(Cn3ccnc3)c12 [CHEMBL2333327]
[1]; [7]
  IC50: 23.5 nM
[2]; [8]
  IC50: 19.2 nM

## COc1ccc(Cn2ccnc2)c2c(=O)c3ccccc3oc12 [CHEMBL2333329]
[1]; [7]
  IC50: 41.1 nM
[2]; [8]
  IC50: 80.1 nM

## CCOc1ccc(Cn2ccnc2)c2c(=O)c3ccccc3oc12 [CHEMBL2333330]
[1]; [7]
  IC50: 14.8 nM
[2]; [8]
  IC50: 25.4 nM

## CC(C)Oc1ccc(Cn2ccnc2)c2c(=O)c3ccccc3oc12 [CHEMBL2333331]
[1]; [7]
  IC50: 19.1 nM
[2]; [8]
  IC50: 92.5 nM

## CC(C)CCOc1ccc(Cn2ccnc2)c2c(=O)c3ccccc3oc12 [CHEMBL2333332]
[1]; [7]
  IC50: 25.2 nM
[2]; [8]
  IC50: 24.4 nM

## CCC(C)Oc1ccc(Cn2ccnc2)c2c(=O)c3ccccc3oc12 (stereo not shown) [CHEMBL2333333]
[1]; [7]
  IC50: 15.3 nM
[2]; [8]
  IC50: 13.1 nM

## O=c1c2ccccc2oc2c(OCC3CC3)ccc(Cn3ccnc3)c12 [CHEMBL2333334]
[1]; [7]
  IC50: 24.1 nM
[2]; [8]
  IC50: 5.5 nM

## O=c1c2ccccc2oc2c(OC3CCCC3)ccc(Cn3ccnc3)c12 [CHEMBL2333335]
[1]; [7]
  IC50: 99.7 nM
[2]; [8]
  IC50: 268 nM

## Cc1cncc(Cc2ccc(-c3ccccc3)nc2)c1 [CHEMBL2417553]
[1]; [9]
  IC50: 33 nM
[2]; [10]
  IC50: 2 nM

## FC(F)(F)c1cncc(Cc2ccc(-c3ccccc3)nc2)c1 [CHEMBL2417613]
[1]; [9]
  IC50: 115 nM
[2]; [10]
  IC50: 38 nM

## COc1cncc(Cc2ccc(-c3ccccc3)nc2)c1 [CHEMBL2417614]
[1]; [9]
  IC50: 25 nM
[2]; [10]
  IC50: 5 nM

## Oc1cncc(Cc2ccc(-c3ccccc3)nc2)c1 [CHEMBL2417615]
[1]; [9]
  IC50: 836 nM
[2]; [10]
  IC50: 51 nM

## c1ccc(-c2cncc(Cc3ccc(-c4ccccc4)nc3)c2)cc1 [CHEMBL2417616]
[1]; [9]
  IC50: 0.5 nM
[2]; [10]
  IC50: 1.3 nM

## CC(c1ccc(-c2ccccc2)nc1)n1ccnc1 (stereo not shown) [CHEMBL2417619]
[1]; [9]
  IC50: 200 nM
[2]; [10]
  IC50: 33 nM

## CCC(c1ccc(-c2ccccc2)nc1)n1ccnc1 (stereo not shown) [CHEMBL2417620]
[1]; [9]
  IC50: 92 nM
[2]; [10]
  IC50: 28 nM

## c1ccc(-c2ccc(C(C3CC3)n3ccnc3)cn2)cc1 (stereo not shown) [CHEMBL2417621]
[1]; [9]
  IC50: 25 nM
[2]; [10]
  IC50: 21 nM

## c1ccc(-c2ccc(C(c3ccco3)n3ccnc3)cn2)cc1 (stereo not shown) [CHEMBL2417623]
[1]; [9]
  IC50: 74 nM
[2]; [10]
  IC50: 69 nM

## CC(c1ccc(-c2ccsc2)nc1)n1ccnc1 (stereo not shown) [CHEMBL2417625]
[1]; [9]
  IC50: 151 nM
[2]; [10]
  IC50: 21 nM

## c1cn(C(c2ccc(-c3ccsc3)nc2)C2CC2)cn1 (stereo not shown) [CHEMBL2417626]
[1]; [9]
  IC50: 31 nM
[2]; [10]
  IC50: 11 nM

## CC(c1ccc(-c2cccc3ccccc23)nc1)n1ccnc1 (stereo not shown) [CHEMBL2417627]
[1]; [9]
  IC50: 273 nM
[2]; [10]
  IC50: 60 nM

## c1ccc(-c2ncc(Cn3ccnc3)c3ccccc23)cc1 [CHEMBL2417632]
[1]; [9]
  IC50: 302 nM
[2]; [10]
  IC50: 87 nM

## c1ccc(-c2ccc(Cc3cccnc3)cn2)cc1 [CHEMBL2417633]
[1]; [9]
  IC50: 322 nM
[2]; [10]
  IC50: 32 nM

## c1ccc(-c2ccc(Cc3ccncc3)cn2)cc1 [CHEMBL2417634]
[1]; [9]
  IC50: 621 nM
[2]; [10]
  IC50: 98 nM

## c1ccc(-c2ccc(Cc3cncc4ccccc34)cn2)cc1 [CHEMBL2417635]
[1]; [9]
  IC50: 23 nM
[2]; [10]
  IC50: 6 nM

## Cc1ccncc1Cc1ccc(-c2ccccc2)nc1 [CHEMBL2417637]
[1]; [9]
  IC50: 19 nM
[2]; [10]
  IC50: 8 nM

## Oc1ccc2ccc(-c3cccnc3)c(Cl)c2c1 [CHEMBL2420674]
[1]; [11]
  IC50: 26 nM
[2]; [12]
  IC50: 235 nM

## COc1ccc2ccc(-c3cccnc3)c(F)c2c1 [CHEMBL2420675]
[1]; [11]
  IC50: 17 nM
[2]; [12]
  IC50: 1610 nM

## Oc1ccc2ccc(-c3cccnc3)c(F)c2c1 [CHEMBL2420676]
[1]; [11]
  IC50: 30 nM
[2]; [12]
  IC50: 1160 nM

## COc1ccc2ccc(-c3cccnc3)c(Cl)c2c1F [CHEMBL2420677]
[1]; [11]
  IC50: 28 nM
[2]; [12]
  IC50: 2940 nM

## Oc1ccc2ccc(-c3cccnc3)c(Cl)c2c1F [CHEMBL2420678]
[1]; [11]
  IC50: 25 nM
[2]; [12]
  IC50: 224 nM

## COc1ccc2ccc(-c3cncc(F)c3)c(Cl)c2c1 [CHEMBL2420679]
[1]; [11]
  IC50: 38 nM
[2]; [12]
  IC50: 1420 nM

## Oc1ccc2ccc(-c3cncc(F)c3)c(Cl)c2c1 [CHEMBL2420680]
[1]; [11]
  IC50: 33 nM
[2]; [12]
  IC50: 450 nM

## COc1cncc(-c2ccc3ccc(OC)cc3c2Cl)c1 [CHEMBL2420681]
[1]; [11]
  IC50: 24 nM
[2]; [12]
  IC50: 447 nM

## COc1cncc(-c2ccc3ccc(O)cc3c2Cl)c1 [CHEMBL2420682]
[1]; [11]
  IC50: 15 nM
[2]; [12]
  IC50: 245 nM

## COc1ccc2ccc(-c3cncc(O)c3)c(Cl)c2c1 [CHEMBL2420683]
[1]; [11]
  IC50: 13 nM
[2]; [12]
  IC50: 7100 nM

## Oc1cncc(-c2ccc3ccc(O)cc3c2Cl)c1 [CHEMBL2420684]
[1]; [11]
  IC50: 27 nM
[2]; [12]
  IC50: 2840 nM

## COc1ccc2ccc(-c3cncnc3)c(Cl)c2c1 [CHEMBL2420685]
[1]; [11]
  IC50: 72 nM
[2]; [12]
  IC50: 12300 nM

## Oc1ccc2ccc(-c3cncnc3)c(Cl)c2c1 [CHEMBL2420686]
[1]; [11]
  IC50: 22 nM
[2]; [12]
  IC50: 2430 nM

## COc1ccc2ccc(-c3cncc4ccccc34)c(Cl)c2c1 [CHEMBL2420687]
[1]; [11]
  IC50: 54 nM
[2]; [12]
  IC50: 362 nM

## Oc1ccc2ccc(-c3cncc4ccccc34)c(Cl)c2c1 [CHEMBL2420688]
[1]; [11]
  IC50: 66 nM
[2]; [12]
  IC50: 238 nM

## N#Cc1ccc([C@H]2CCCCc3cncn32)c(F)c1 [CHEMBL3099683]
[1]; [13]
  IC50: 0.3 nM
[2]; [14]
  IC50: 1 nM

## N#Cc1ccc([C@@]2(C(=O)OCc3ccc(F)cc3)CCc3cncn32)c(Cl)c1 [CHEMBL3099689]
[1]; [13]
  IC50: 3.8 nM
[2]; [14]
  IC50: 0.1 nM

## Cc1cc(C#N)ccc1[C@H]1CCc2cncn21 [CHEMBL3099696]
[1]; [13]
  IC50: 1.5 nM
[2]; [14]
  IC50: 0.9 nM

## N#Cc1ccc([C@H]2CCCCc3cncn32)c(-c2ccc(F)cc2)c1 [CHEMBL3099704]
[1]; [13]
  IC50: 0.3 nM
[2]; [14]
  IC50: 0.4 nM

## Cc1cncc(Cc2ccc(-c3ccccc3)nc2)c1 [Compound 1]
[1]; [15]
  IC50: 33 nM
[2]; [16]
  IC50: 2 nM

## O=C1CCc2cc(C(C3CC3)n3ccnc3)cc3c2N1CC3 (stereo not shown) [Compound 2]
[1]; [15]
  IC50: 24 nM
[2]; [16]
  IC50: 2.2 nM

## O=c1c(Cn2ccnc2)c(-c2ccccc2)oc2cc(F)ccc12 [Compound 3]
[1]; [15]
  IC50: 94.9 nM
[2]; [16]
  IC50: 9.7 nM
